Test results taken from patent publication US12234211B2, “Cycloolefin substituted heteroaromatic compounds and their use” (HUTCHISON MEDIPHARMA LIMITED, priority 2017, dated 2025).

Columns and labels:
[1] = biological target: T1, IDH2-R140Q (Homo sapiens, UniProt P48735, R140Q); assay: Fluorescent determination of IDH2-R140Q cell activity (2-HG in U87MGR140Q cells); assay type: cell-based; details: 72 hours incubation, read-out: IC50 (2-HG inhibition)
T1 construct: expressed in transfected cells
T1 sequence (P48735 40-452 R140Q): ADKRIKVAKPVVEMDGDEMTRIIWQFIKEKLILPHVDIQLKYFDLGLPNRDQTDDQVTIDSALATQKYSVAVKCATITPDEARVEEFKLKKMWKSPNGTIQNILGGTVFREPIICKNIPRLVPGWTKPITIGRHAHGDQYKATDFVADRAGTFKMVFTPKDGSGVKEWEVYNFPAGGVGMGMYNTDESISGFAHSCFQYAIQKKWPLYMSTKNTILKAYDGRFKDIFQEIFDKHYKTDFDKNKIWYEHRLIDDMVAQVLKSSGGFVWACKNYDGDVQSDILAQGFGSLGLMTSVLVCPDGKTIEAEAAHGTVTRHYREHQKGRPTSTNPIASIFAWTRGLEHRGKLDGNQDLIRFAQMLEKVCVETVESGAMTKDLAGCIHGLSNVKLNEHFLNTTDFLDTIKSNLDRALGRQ

[2] = Metabolic stability test in liver microsomes (mouse); assay type: in vitro ADME; details: percentage of remaining compound after incubation for 30 minutes vs 0 minute; 1 μM compound; 0.5 mg/mL liver microsomes; 37° C.
Experimental: (§1) Male CD1 mouse liver microsomes was supplied by Research Institute for Liver Diseases (Shanghai) Co., Ltd. Male SD rat liver microsomes was supplied by BioreclamationIVT in US.
(§2) Phenacetin, glucose-6-phosphate (G-6-P), glucose-6-phosphate dehydrogenase (G-6-PD), and nicotinamide adenine dinucleotide phosphate (NADP) were supplied by Sigma-Aldrich (Missouri, USA).
(§3) 10 mM stock solution of test compound: Certain amount of test compound was weighed and dissolved in certain volume of dimethylsulfoxide (DMSO) to get the stock solution of test compound at 10 mM.
(§4) Reaction termination solution: Certain amount of phenacetin as internal standard was weighed and dissolved in acetonitrile to get the reaction termination solution at 1000 ng/mL, and stored at room temperature for use.
(§5) The stock solution of test compound was diluted to the designated concentration with organic solution (usually the mixtures of acetonitrile, methanol and water with different portions depending on the compound solution) to make the final concentration to be 1 μM and the contents of organic solvents no more than 1% (For DMSO, the controlled margin was 0.1%) in the final incubation system. 100 mM NADP, 500 mM G-6-P and 100 U/mL G-6-PDH were mixed and diluted with ultrapure water to provide the NADPH regenerating system containing 1 mM NADP, 5 mM G-6-P and 1 U/mL G-6-PD, which was pre-incubated at 37° C. water-bath for 10 min and then cooled on ice until being added into the reaction system. 20 mg/mL liver microsomes was mixed with 200 mM PBS and diluted with ultrapure water to make the concentrations of liver microsomes and PBS to be 0.5 mg/mL and 50 mM in the final incubation system, respectively. After the diluted liver microsomes was mixed with the NADPH regenerating solution, certain volumes of 100 mM EDTA and 300 mM MgCl2 (concentration of EDTA and MgCl2 in the final incubation system is 1 mM and 3 mM, respectively) were added, and the incubation system was put into 37° C. water bath. The incubation was commenced by adding the stock solution of test compound and maintained for 30 min. The incubation was terminated by adding the reaction termination solution. The 0 min sample was prepared by adding the reaction termination solution to the incubation system immediately prior to putting the system into the water bath with the addition of the stock solution of test compound. The terminated incubation mixtures were vortexed and centrifuged at 4400 rpm for 10 min, and the supernatant was collected for LC-MS/MS analysis.
(§6) The concentration of test compound was determined using LC-MS/MS method. Using the peak area ratio of the compound and the internal standard as an index, the percentage of remaining compound after incubation for 30 minutes as compared with the 0 minute sample was calculated, and the metabolic stability of the compound was evaluated.

[3] = Metabolic stability test in liver microsomes (rat); assay type: in vitro ADME; details: percentage of remaining compound after incubation for 30 minutes vs 0 minute; 1 μM compound; 0.5 mg/mL liver microsomes; 37° C.
Experimental: as §1, §2, §3, §4, §5, §6

[4] = biological target: T2, IDH1-R132H (Homo sapiens, UniProt O75874, R132H); assay: Fluorescent determination of IDH1-R132H cell activity (2-HG in U87MGR132H cells); assay type: cell-based; details: 2-HG inhibition in U87MGR132H cells transfected with IDH1-R132H mutant plasmid
T2 construct: expressed in transfected cells; host or cells: U87MG cells (U87MGR132H)
T2 sequence (O75874 whole entry R132H): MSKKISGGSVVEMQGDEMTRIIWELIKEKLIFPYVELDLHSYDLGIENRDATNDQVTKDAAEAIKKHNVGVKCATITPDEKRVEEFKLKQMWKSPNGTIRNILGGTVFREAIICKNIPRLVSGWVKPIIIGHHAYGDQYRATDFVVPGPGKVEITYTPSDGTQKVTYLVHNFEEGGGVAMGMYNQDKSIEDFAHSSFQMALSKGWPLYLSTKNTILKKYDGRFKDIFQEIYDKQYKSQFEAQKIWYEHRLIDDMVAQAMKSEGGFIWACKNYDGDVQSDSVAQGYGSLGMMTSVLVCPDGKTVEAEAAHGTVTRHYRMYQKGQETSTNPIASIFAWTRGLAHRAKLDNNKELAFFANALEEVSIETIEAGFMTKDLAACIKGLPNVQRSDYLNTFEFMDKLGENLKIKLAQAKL

SMILES | IC50 [1] [µM] | Mouse liver microsome stability [2] [%] | Rat liver microsome stability [3] [%] | IC50 [4] [µM]
CC(C)Nc1nc(N[C@H](C)C(F)(F)F)nc(C2=C(F)C(O)CCC2)n1 (mixture of isomers) [Compound 1, 2-Fluoro-3-(4-(isopropylamino)-6-(((R)-1,1,1-trifluoropropan-2-yl)amino)-1,3,5-triazin-2-yl)cyclohex-2-en-1-ol] | 0.097 | 83.5 | 73.8 | 
C[C@@H](Nc1nc(NC2CCC(F)(F)C2)nc(C2=C(F)C(O)CCC2)n1)C(F)(F)F (mixture of isomers) [Compound 6] | 0.115 | 76.3 | 70.0 | 0.67
C[C@@H](Nc1nc(NC2CCC2)nc(C2=C(F)C(O)CCC2)n1)C(F)(F)F (mixture of isomers) [Compound 7] | 0.087 | 49.8 | 50.3 | 1.5
[2H]C1(O)CCCC(c2nc(N[C@H](C)C(F)(F)F)nc(N[C@H](C)C(F)(F)F)n2)=C1F (mixture of isomers) [Compound 18] | 0.11 | 82.7 | 91.5 | 0.219
C[C@@H](Nc1nc(N[C@H](C)C(F)(F)F)nc(C2=C(F)C(O)C(F)(F)CC2)n1)C(F)(F)F (mixture of isomers) [Compound 196] | 0.094 | 95.2 | 100.0 | 0.21
[2H]C1(O)C(F)=C(c2nc(N[C@H](C)C(F)(F)F)nc(N[C@H](C)C(F)(F)F)n2)CCC1(F)F (mixture of isomers) [Compound 211] | 0.097 | 99.7 | 98.8 | 0.175
C[C@@H](Nc1nc(N[C@@H]2CCC(F)(F)C2)nc(C2=C(F)C(O)C(F)(F)CC2)n1)C(F)(F)F (mixture of isomers) [Compound 235] | 0.13 | 75.5 | 89.0 | 0.246
C[C@H](Nc1nc(NC2CC(F)(F)C2)nc(C2=C(F)C(O)C(F)(F)CC2)n1)C(F)(F)F (mixture of isomers) [Compound 239] | 0.046 | 91.8 | 93.0 | 0.344
C[C@@H](Nc1nc(N[C@H](C)C(F)(F)F)nc(C2=C(F)C(O)CCC2)n1)C(F)(F)F (mixture of isomers) [Compound 2] | 0.137 | 83.8 | 99.0 | 0.365
CC(Nc1nc(NC2CC(F)(F)C2)nc(C2=C(F)C(O)CCC2)n1)C(F)(F)F (racemic) [Compound 4] | 0.08 | 82.1 | 62.9 | 0.75
C[C@H](Nc1nc(N[C@H](C)C(F)(F)F)nc(C2=C(F)C(O)CCC2)n1)C(F)(F)F (mixture of isomers) [Compound 11] | 0.284 | 80.3 | 87.6 | 1.02
[2H]C1([2H])CCC(c2nc(NC3CC(F)(F)C3)nc(NC3CC(F)(F)C3)n2)=C(F)C1([2H])O (racemic) [Compound 91] | 0.058 | 70.5 | 86.6 | 
C[C@@H](Nc1nc(NC2CCC2)nc(C2=CC(O)CCC2)n1)C(F)(F)F (mixture of isomers) [Compound 128] | 0.092 | 15.9 | 34.0 | 
[2H]C1(O)C(F)=C(c2nc(N[C@H](C)C(F)(F)F)nc(N[C@H](C)C(F)(F)F)n2)CCC1F (stereo partly drawn) [Compound 266, 3-(4,6-Bis(((R)-1,1,1-trifluoropropan-2-yl)amino)-1,3,5-triazin-2-yl)-2,6-difluorocyclohex-2-en-1-D-1-ol] |  | 91.5 | 98.2 | 
